Experimental data as given in PMC6928743, “3’-O-Methylorobol Inhibits the Voltage-Gated Sodium Channel Nav1.7 with Anti-Itch Efficacy in A Histamine-Dependent Itch Mouse Model” (International Journal of Molecular Sciences, 2019).

Legend:
Type in all cases: cell-based
Nav1.8 = target: T1, Nav1.8 (Mus musculus, UniProt Q6QIY3); experiment: whole-cell voltage-clamp in ND7/[…] cells transiently expressing mNav1.[…], single concentration […]
T1 construct: gene Scn10a

Nav1.6 = target: T2, Nav1.6 (Homo sapiens, UniProt Q9UQD0); experiment: whole-cell voltage-clamp in CHO cells stably expressing hNav1.[…], single concentration […]
T2 construct: gene SCN8A
T2 sequence (Q9UQD0 whole entry): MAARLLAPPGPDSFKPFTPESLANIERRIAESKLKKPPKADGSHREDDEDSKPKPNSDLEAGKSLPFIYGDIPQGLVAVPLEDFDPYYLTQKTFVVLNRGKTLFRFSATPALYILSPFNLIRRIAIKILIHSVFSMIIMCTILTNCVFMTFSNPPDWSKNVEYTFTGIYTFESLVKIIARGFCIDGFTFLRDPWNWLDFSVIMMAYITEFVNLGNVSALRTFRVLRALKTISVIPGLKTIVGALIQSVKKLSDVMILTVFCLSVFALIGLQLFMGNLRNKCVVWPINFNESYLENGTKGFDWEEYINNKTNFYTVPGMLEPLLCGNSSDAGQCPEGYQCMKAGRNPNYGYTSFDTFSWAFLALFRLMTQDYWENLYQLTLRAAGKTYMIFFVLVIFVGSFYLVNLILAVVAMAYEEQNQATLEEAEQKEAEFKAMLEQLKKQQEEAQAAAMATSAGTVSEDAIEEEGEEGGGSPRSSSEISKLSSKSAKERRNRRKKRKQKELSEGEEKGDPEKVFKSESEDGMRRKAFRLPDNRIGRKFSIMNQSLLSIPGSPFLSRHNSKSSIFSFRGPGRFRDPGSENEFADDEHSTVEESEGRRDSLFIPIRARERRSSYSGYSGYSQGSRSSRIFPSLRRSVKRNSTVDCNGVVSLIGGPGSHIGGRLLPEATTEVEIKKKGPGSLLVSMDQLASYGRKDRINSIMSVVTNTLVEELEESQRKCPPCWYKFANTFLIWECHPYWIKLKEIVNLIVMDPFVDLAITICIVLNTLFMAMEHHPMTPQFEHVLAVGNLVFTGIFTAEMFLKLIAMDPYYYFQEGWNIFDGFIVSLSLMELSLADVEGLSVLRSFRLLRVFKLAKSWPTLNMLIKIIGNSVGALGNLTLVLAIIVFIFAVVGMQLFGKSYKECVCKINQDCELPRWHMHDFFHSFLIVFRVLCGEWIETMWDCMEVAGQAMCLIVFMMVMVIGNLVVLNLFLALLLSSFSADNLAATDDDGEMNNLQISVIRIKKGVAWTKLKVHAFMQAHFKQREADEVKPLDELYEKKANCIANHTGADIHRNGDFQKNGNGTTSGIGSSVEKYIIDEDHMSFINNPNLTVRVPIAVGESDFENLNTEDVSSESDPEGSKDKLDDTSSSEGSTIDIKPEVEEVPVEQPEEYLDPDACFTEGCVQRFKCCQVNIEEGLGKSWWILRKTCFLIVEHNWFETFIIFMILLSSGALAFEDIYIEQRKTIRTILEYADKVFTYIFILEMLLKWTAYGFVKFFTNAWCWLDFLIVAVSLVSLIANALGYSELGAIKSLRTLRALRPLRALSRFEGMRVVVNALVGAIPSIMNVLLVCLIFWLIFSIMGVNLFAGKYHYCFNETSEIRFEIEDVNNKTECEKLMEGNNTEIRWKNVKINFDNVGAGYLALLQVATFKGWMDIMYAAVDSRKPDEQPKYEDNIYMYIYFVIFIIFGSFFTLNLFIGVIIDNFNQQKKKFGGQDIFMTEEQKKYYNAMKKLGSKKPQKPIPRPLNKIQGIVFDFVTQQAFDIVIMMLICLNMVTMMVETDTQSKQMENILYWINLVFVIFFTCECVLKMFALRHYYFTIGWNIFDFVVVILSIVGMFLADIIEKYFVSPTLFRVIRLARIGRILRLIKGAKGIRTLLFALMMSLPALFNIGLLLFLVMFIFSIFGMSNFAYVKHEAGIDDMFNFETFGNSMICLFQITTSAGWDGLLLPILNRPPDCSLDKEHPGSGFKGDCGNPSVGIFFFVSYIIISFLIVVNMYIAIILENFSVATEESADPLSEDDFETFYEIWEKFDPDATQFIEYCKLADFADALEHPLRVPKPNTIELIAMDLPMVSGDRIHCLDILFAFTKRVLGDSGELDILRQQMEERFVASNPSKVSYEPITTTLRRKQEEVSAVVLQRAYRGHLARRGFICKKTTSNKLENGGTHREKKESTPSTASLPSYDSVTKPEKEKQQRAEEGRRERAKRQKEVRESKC

Nav1.7 = target: T3, Nav1.7 (Homo sapiens, UniProt Q15858); experiment: whole-cell voltage-clamp in CHO cells stably expressing hNav1.[…]
T3 construct: gene SCN9A
T3 sequence (Q15858 whole entry): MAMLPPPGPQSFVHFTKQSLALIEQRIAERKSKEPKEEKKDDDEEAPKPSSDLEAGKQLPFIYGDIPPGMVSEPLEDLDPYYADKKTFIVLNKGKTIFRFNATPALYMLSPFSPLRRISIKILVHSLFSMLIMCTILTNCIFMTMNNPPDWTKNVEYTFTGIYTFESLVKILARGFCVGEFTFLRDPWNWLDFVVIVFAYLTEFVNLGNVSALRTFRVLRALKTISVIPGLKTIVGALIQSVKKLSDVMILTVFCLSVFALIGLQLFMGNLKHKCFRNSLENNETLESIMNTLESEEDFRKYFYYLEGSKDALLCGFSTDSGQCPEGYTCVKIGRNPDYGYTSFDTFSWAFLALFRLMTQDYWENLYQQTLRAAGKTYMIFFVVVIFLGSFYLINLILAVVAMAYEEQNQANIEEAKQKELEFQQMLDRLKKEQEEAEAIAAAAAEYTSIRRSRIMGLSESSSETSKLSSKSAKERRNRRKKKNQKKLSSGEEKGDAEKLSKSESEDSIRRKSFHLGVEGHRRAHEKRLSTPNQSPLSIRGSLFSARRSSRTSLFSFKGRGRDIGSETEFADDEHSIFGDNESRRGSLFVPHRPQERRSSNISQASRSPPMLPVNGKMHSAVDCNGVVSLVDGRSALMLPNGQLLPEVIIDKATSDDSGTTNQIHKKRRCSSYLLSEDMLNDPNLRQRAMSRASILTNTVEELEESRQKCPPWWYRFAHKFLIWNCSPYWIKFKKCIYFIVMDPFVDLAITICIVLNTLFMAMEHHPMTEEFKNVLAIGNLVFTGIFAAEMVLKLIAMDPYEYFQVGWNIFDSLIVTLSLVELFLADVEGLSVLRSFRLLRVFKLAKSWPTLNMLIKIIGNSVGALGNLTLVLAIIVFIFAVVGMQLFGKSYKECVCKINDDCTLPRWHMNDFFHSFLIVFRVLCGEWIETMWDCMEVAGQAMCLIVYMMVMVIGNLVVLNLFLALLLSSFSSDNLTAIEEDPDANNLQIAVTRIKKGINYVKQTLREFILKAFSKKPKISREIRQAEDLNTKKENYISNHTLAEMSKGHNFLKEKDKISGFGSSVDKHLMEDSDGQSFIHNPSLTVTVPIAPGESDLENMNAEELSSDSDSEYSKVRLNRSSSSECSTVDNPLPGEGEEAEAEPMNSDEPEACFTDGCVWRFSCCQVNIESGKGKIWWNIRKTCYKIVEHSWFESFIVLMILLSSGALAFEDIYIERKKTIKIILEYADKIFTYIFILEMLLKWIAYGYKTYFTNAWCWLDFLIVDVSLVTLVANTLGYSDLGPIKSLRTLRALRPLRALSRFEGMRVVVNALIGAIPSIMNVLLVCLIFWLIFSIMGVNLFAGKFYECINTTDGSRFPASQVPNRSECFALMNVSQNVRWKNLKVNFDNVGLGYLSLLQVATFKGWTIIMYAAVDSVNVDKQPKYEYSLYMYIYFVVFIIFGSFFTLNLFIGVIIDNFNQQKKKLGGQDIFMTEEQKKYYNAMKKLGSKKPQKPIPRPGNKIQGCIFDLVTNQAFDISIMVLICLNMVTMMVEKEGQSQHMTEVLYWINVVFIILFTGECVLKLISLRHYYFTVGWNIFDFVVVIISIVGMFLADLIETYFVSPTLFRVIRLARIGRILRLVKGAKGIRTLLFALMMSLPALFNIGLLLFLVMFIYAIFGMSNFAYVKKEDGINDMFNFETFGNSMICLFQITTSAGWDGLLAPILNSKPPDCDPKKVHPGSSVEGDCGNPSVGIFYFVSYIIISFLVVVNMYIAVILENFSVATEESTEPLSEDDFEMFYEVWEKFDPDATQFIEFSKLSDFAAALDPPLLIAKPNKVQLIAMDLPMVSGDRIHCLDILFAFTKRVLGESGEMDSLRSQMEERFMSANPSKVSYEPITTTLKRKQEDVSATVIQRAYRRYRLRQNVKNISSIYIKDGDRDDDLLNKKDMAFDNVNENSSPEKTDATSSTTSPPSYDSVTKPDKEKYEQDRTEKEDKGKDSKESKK

Q: What does the source list for `COc1cc(-c2coc3cc(O)cc(O)c3c2=O)ccc1O` [3’-O-methylorobol]?
A: inhibition at 10 µM (Nav1.8): 23%; inhibition at 10 µM (Nav1.6): 39%; IC50 (Nav1.7): 3.46 µM
